The values below come from ChEMBL document CHEMBL1201862, “PubChem BioAssay data set” (2004).

Test systems include 786-0; A498; ACHN; CAKI-1; DU-145; HCT-116; LOX IMVI; MDA-N; NCI-H226; NCI/ADR-RES; OVCAR-3; OVCAR-4; RXF 393; SF-295; SK-MEL-2; SK-MEL-5; SNB-75; SR; TK-10; UACC-257.
Common to all, as to assay: NCI tumour cell line growth inhibition, 48 h

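A five-concentration, 48-hour dose response in 96-well plates underlies each endpoint, interpolated linearly between surrounding concentrations. Here, GI50 denotes the concentration required for 50% inhibition of growth.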 Calls of active or inactive are those of the source. No stated cut-off is given here; in the data, active = GI50 up to about 1.1 µM and inactive = higher.

For the compound `COc1ccc2c3c1OC1C(F)C=CC4(O)C(C2)NCCC314` (stereo not given), the GI50 was 1.2 µM (inactive) in the test on 786-0; 4.47 µM (inactive) in the test with A498; 2.65 µM (inactive) in the test on ACHN; 0.962 µM (active) with CAKI-1; 2.82 µM (inactive) in the test with DU-145; 1.24 µM (inactive) in the test with HCT-116. Further, the GI50 is 2.31 µM (inactive) with LOX IMVI; 2.42 µM (inactive) in the test with MDA-N; 11.2 µM (inactive) in the test on NCI-H226; 3.94 µM (inactive) in the test with NCI/ADR-RES; 1.87 µM (inactive) in the test with OVCAR-3; 1.95 µM (inactive) with OVCAR-4. Also, the GI50 is 1.62 µM (inactive) with RXF 393; 9.18 µM (inactive) in the test with SF-295; 2.38 µM (inactive) in the test with SK-MEL-2; 3.94 µM (inactive) in the test on SK-MEL-5; 2.06 µM (inactive) in the test with SNB-75; 0.92 µM (active) in the test with SR. The results for the GI50 in the test on TK-10 and in the test with UACC-257 were 3.51 µM (inactive) and 11.1 µM (inactive), respectively.

As for `OC(c1cc(C(F)(F)F)nc2c(Cl)cc(Cl)cc12)C1CCCCN1` (stereo not given), the GI50 was 13.3 µM (inactive) in the test with 786-0; > 36.1 µM (inactive) in the test on A498; > 24.4 µM (inactive) with ACHN; 8.97 µM (inactive) with CAKI-1; 7.01 µM (inactive) in the test on DU-145; 13.6 µM (inactive) with HCT-116. For the same compound, the GI50 in the test with LOX IMVI was 2.93 µM (inactive); with MDA-N it was 77.1 µM (inactive); in the test with NCI-H226 it was 16.8 µM (inactive); in the test on NCI/ADR-RES, 10.5 µM (inactive); in the test on OVCAR-3 it was 3.53 µM (inactive); in the test with OVCAR-4, 5.01 µM (inactive). Besides, the GI50 was 4.8 µM (inactive) with RXF 393; 12.2 µM (inactive) with SF-295; > 23.3 µM (inactive) with SK-MEL-2; 8.65 µM (inactive) in the test with SK-MEL-5; 11.8 µM (inactive) in the test on SNB-75; 1.66 µM (inactive) with SR.

For `C[C@]12CC[C@@H]3c4ccc(O)cc4CC[C@H]3[C@@H]1C/C(=C\c1ccncc1)C2=O`, the GI50 was 34 µM (inactive) in the test on A498; 20.1 µM (inactive) in the test with ACHN; 33.2 µM (inactive) in the test with CAKI-1; 12.1 µM (inactive) in the test on DU-145; 20.7 µM (inactive) in the test on LOX IMVI; 11.3 µM (inactive) with MDA-N. For the same compound, the GI50 in the test on NCI-H226 was 19.3 µM (inactive); with NCI/ADR-RES, 17.5 µM (inactive); in the test with OVCAR-3, 14.8 µM (inactive); in the test with OVCAR-4 it was 15.6 µM (inactive); in the test on RXF 393 it was 20.4 µM (inactive); with SF-295 it was 24.9 µM (inactive). Also, the GI50 in the test with SK-MEL-2 is 12.8 µM (inactive); in the test with SK-MEL-5 it was 8.04 µM (inactive); with SNB-75 it was > 100 µM (inactive); in the test with SR, 6.32 µM (inactive); in the test on TK-10, 29.2 µM (inactive); with UACC-257, 27.5 µM (inactive).

As to `COC(=O)C(C(=O)OC)C1CC(=O)c2c(Br)sc(Br)c21` (stereo not given), the GI50 with 786-0 is 26.1 µM (inactive); in the test on A498, 31.5 µM (inactive); with ACHN, 13.7 µM (inactive); in the test on CAKI-1, 9.06 µM (inactive); in the test on DU-145, 16.4 µM (inactive); in the test with HCT-116, 14.6 µM (inactive). The GI50 was 12.9 µM (inactive) in the test with LOX IMVI; 23.4 µM (inactive) in the test on MDA-N; 22 µM (inactive) in the test on NCI-H226; 16.8 µM (inactive) with NCI/ADR-RES; 2.06 µM (inactive) in the test with OVCAR-3; 13 µM (inactive) in the test on OVCAR-4. Further, the GI50 in the test with RXF 393 is 26.1 µM (inactive); with SF-295, 21.8 µM (inactive); in the test with SK-MEL-2 it was 13.3 µM (inactive); with SK-MEL-5 it was 15.1 µM (inactive); in the test on SNB-75 it was 22.9 µM (inactive); in the test with SR it was 12.5 µM (inactive). Moreover, the GI50 in the test on TK-10 is 31.5 µM (inactive); in the test on UACC-257 it was 22 µM (inactive).

Take `O=[N+]([O-])c1ccc(-c2nc3cc([N+](=O)[O-])ccc3[nH]2)cc1`: the GI50 in the test on 786-0 is 32.1 µM (inactive); with ACHN, 31 µM (inactive); with CAKI-1 it was 32.7 µM (inactive); in the test with DU-145 it was 27.9 µM (inactive); with HCT-116 it was 19 µM (inactive); in the test with LOX IMVI it was 26.5 µM (inactive). The GI50 is 33.2 µM (inactive) in the test with MDA-N; 39.6 µM (inactive) in the test with NCI-H226; 17.6 µM (inactive) with NCI/ADR-RES; 42.1 µM (inactive) in the test with OVCAR-3; 47.2 µM (inactive) in the test with OVCAR-4; 63.7 µM (inactive) in the test with RXF 393. Further, the GI50 in the test on SF-295 is 20 µM (inactive); in the test on SK-MEL-2, 23.6 µM (inactive); in the test with SK-MEL-5, 16.8 µM (inactive); in the test with SNB-75, 39.4 µM (inactive); with SR it was 29 µM (inactive); in the test with TK-10, 52.2 µM (inactive). Moreover, the GI50 with UACC-257 was 31 µM (inactive).

Take `O=C1CC(=O)c2c(O)cc(O)c(c2O)-c2c(ccc(O)c2O)C2=CC(=O)c3c(O)cc(O)c(c3O2)-c2c1ccc(O)c2O.O=C1CC2(O)Oc3c1c(O)cc(O)c3-c1c(ccc(O)c1O)-c1cc(=O)c3c(O)cc(O)c(c3o1)-c1c2ccc(O)c1O`: the GI50 in the test with A498, in the test with CAKI-1, in the test with DU-145, in the test with HCT-116, in the test with LOX IMVI and in the test with MDA-N was > 50 µM (inactive) in each case. In addition, the GI50 in the test on NCI-H226, in the test with NCI/ADR-RES, in the test on OVCAR-3, in the test with OVCAR-4, in the test with RXF 393 and in the test with SF-295 was > 50 µM (inactive) in each case. The GI50 with SK-MEL-2, in the test on SK-MEL-5, with SNB-75, in the test on SR, in the test with TK-10 and in the test with UACC-257 was > 50 µM (inactive) in each case.

For `C/C(=N\Nc1nc2ccccc2[nH]1)c1cccc[n+]1[O-]`, the GI50 was > 100 µM (inactive) in the test on 786-0; > 100 µM (inactive) in the test on A498; 71 µM (inactive) with ACHN; 34.5 µM (inactive) in the test with CAKI-1; > 100 µM (inactive) in the test on DU-145; 88.3 µM (inactive) with HCT-116. Besides, the GI50 in the test on LOX IMVI was 56.6 µM (inactive); in the test on MDA-N, > 100 µM (inactive); with NCI-H226 it was 45.4 µM (inactive); with NCI/ADR-RES it was 38.5 µM (inactive); in the test with OVCAR-3 it was 37.6 µM (inactive); in the test with OVCAR-4, > 100 µM (inactive). Further, the GI50 was 45.2 µM (inactive) with RXF 393; 3.48 µM (inactive) with SF-295; > 100 µM (inactive) in the test on SK-MEL-2; > 100 µM (inactive) with SK-MEL-5; 30.1 µM (inactive) with SR; 67.1 µM (inactive) with TK-10. Also, the GI50 in the test on UACC-257 was > 100 µM (inactive).

For `Oc1ccc(-c2nc3cc(C(F)(F)F)ccc3s2)cc1`, the GI50 with A498 is 18.2 µM (inactive); in the test on ACHN, 14.5 µM (inactive); in the test with CAKI-1, 15.7 µM (inactive); with DU-145, 16.4 µM (inactive); with HCT-116, 14.5 µM (inactive); in the test on LOX IMVI, 12.8 µM (inactive). In addition, the GI50 with MDA-N was 17.7 µM (inactive); in the test with NCI-H226, 17.3 µM (inactive); in the test on NCI/ADR-RES it was 20 µM (inactive); in the test with OVCAR-3, 15 µM (inactive); in the test on RXF 393 it was 17.4 µM (inactive); in the test on SF-295, 15 µM (inactive). Moreover, the GI50 was 16.1 µM (inactive) with SK-MEL-2; 14.9 µM (inactive) in the test with SK-MEL-5; 15.8 µM (inactive) in the test with SR; 18.8 µM (inactive) with TK-10; 18 µM (inactive) in the test with UACC-257.

`c1ccc(C(NC2=NCCO2)C2CC2)cc1` (stereo not given): the GI50 with 786-0 was > 100 µM (inactive); in the test with A498, 93.1 µM (inactive); with ACHN it was > 100 µM (inactive); in the test on DU-145 it was > 100 µM (inactive); in the test with HCT-116, 82.8 µM (inactive); in the test with LOX IMVI, > 100 µM (inactive). The GI50 in the test with MDA-N, with NCI-H226, in the test on NCI/ADR-RES, in the test with OVCAR-3, in the test with OVCAR-4 and with RXF 393 was > 100 µM (inactive) throughout. For the same compound, the GI50 in the test on SF-295, in the test with SK-MEL-2, in the test with SK-MEL-5, in the test with SNB-75, in the test with SR and in the test with TK-10 was > 100 µM (inactive) in each case. Further, the GI50 in the test on UACC-257 was > 100 µM (inactive).

As for `Nc1nc(N)c2cc(Sc3ccc4nc(N)nc(N)c4c3)ccc2n1`, the GI50 in the test with A498 was > 100 µM (inactive); with ACHN it was 0.493 µM (active); in the test on CAKI-1, > 100 µM (inactive); in the test with DU-145 it was 1.13 µM (inactive); in the test with HCT-116 it was 0.2 µM (active); with LOX IMVI, 0.0408 µM (active). For the same compound, the GI50 in the test on MDA-N is > 100 µM (inactive); in the test on NCI-H226 it was > 29.2 µM (inactive); in the test on NCI/ADR-RES, > 31.6 µM (inactive); with OVCAR-3, > 31.6 µM (inactive); in the test with OVCAR-4 it was > 100 µM (inactive); in the test with RXF 393 it was > 100 µM (inactive). Also, the GI50 with SK-MEL-2, in the test on SNB-75, in the test on SR, in the test with TK-10 and in the test with UACC-257 was > 100 µM (inactive) throughout.
